How the values were obtained:
[1] = biological target: T1, HRAS^G12V-GppNHp (Homo sapiens, UniProt P01112, G12V); test: SPR binding to HRAS G12V-GppNHp
T1 construct: expression of HRAS (1-166) HRAS^G12V or KRAS^G12V cDNA cloned into the pGEX-2T vector; made in house; host or cells: E. coli C41(DE3)
Method: A BIAcore T100 (GE Healthcare) was used to screen the fragment library for RAS binders. A polyclonal goat anti-GST antibody (GE Healthcare) was immobilized on a CM5 sensor chip (GE Healthcare) by the amine coupling method. To immobilize the antibody on CM5 chip, the chip was first activated by injecting 100 µl mixture of 0.2 M EDC (N-ethyl-N-(dimethylaminopropyl) carbodiimide hydrochloride) and 0.05 M NHS (N-hydroxysuccinimide) at 10 µl/min flow rate. Furthermore, 100 µg/ml anti-GST antibody in 10 mM sodium acetate, pH 5.0 was injected at 5 µl/min for 900 s and immobilized until 20,000 ~ 25,000 RU. After immobilization the chip was immediately inactivated by injecting 1 M ethanolamine, pH 8.5 at 10 µl/min for 600 s. The chip was kept running in the HBS buffer (GE Healthcare) comprising 10 mM HEPES, […], 150 mM NaCl. […] Before fragment library screening, the running buffer was replaced by 20 mM Tris, pH 8, 150 mM NaCl, 5 mM MgCl2, 5% DMSO. DMSO solvent correction curves were generated by injecting the running buffers with serial concentrations of DMSO ranging from 4.5 to 6%. For fragment screening, each compound was diluted at 200 µM or 1 mM, 5% DMSO in 20 mM Tris, pH 8, 150 mM NaCl, 5 mM MgCl2 buffer in a polypropylene 96 well plate. The individual compounds were injected at 30 µl for 60 s at 30 µl/min flow rate over flow cells Fc1, Fc2, Fc3 and Fc4. […]

[2] = test system: AKT phosphorylation (Ser473) in H358 cells (KRAS^G12C); test: Biomarker phosphorylation assay, pAKT, H358; assay type: cell-based, human; details: EGF 10 min
Method: Fig. 5 Abd-7 results on RAS-dependent signalling pathways and cell viability. a, b DLD-1 (a) or H358 (b) cells were serum-starved for 24 h, incubated in mono-layer with Abd-7 in a range from 2, 5, 10 and 20 μM for 3 h and stimulated with EGF 10 min. Proteins were extracted and separated by SDS-PAGE and transferred to membranes for Western analysis with anti-pAKT, anti-pERK, anti-pan AKT and anti-pan ERK. Anti-cyclophilin B antibody was the loading control. Signal was developed using standard ECL. c–e Effects of compounds Abd-2, Abd-4, Abd-5, Abd-6, and Abd-7 on the viability of human cancer cells lines was assessed for a 2-D culture of DLD-1 (mutant KRAS^G13D) cells and HT1080 cells (mutant NRAS^Q61K). The cells were treated with a dose range from 0 μM to 20 μ and incubated for 72 h when cell viability was assessed using CellTitreGlo. […] Each experiment was repeated at least three times (a, b) and four times (c, d). Where error bars are presented, they correspond to mean values ± SD of biological repeats
A total of 450,000 DLD1 or 640,000 H358 cells were seeded per well of a six well plate. Approximately, 20 h later, the medium was removed, the cells washed twice with PBS and DMEM without FBS was added and left for 24 h. The medium was removed and 2 ml of DMEM no FBS was added with the appropriate concentration of compound (DMSO, 2, 5, 10 or 20 μM) for 3 h. Cells were stimulated with EGF (50 ng/ml) for 10 min, washed once with PBS and directly lysed in SDS-Tris buffer (1% SDS, 10 mM Tris-HCl pH 7.4) supplemented with protease inhibitors (Sigma) and phosphatase inhibitors (Thermo-Fisher). Cell lysates were sonicated with a Branson Sonifier and the protein concentrations determined by using the Pierce BCA protein assay kit (Thermo-Fisher). Furthermore, 10 μg of protein were resolved on 10 or 12.5% SDS-PAGE and subsequently transferred onto a PVDF membrane (GE). The membrane was blocked (with 10% non-fat milk (Sigma) or 10% BSA (Sigma) in TBS-0.1% Tween20) and incubated overnight with primary antibody at 4 °C. […]

T1 sequence (P01112 1-166 G12V): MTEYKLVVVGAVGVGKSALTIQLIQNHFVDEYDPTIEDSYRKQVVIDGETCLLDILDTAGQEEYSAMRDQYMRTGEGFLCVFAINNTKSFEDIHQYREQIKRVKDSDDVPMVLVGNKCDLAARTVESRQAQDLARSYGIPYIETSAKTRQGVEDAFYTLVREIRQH

Row | binding to^G12V-GppNHp (SPR) [1] | Structure (SMILES) | inhibition of AKT phosphorylation ([2]; H358, 20 μM, 3 h) | concentration at which inhibition of AKT phosphorylation initiates ([2]; H358, starved 24 h, 3 h compound, Western) [µM] | inhibition at 10 µM ([2]; Homo sapiens, NCI-H358, H358, 10 μM, 3 h) [%]
1 | binds | O=C(NCC1COc2ccccc2O1)c1ccco1 (stereo not shown) [Abd-2] | – | – | –
2 | – | COc1nc(-c2cccc3c2OCCO3)ccc1Nc1ccc(CN(C)C)cc1 [Abd-7] | complete inhibition | 2 | > 50
